Assay results published in article PMC6017400, “Investigation into Improving the Aqueous Solubility of the Thieno[2,3-b]pyridine Anti-Proliferative Agents” (Molecules : A Journal of Synthetic Chemistry and Natural …, 2018).
≈ marks a conversion by molar mass, not a printed value. Where “and” joins values, the source holds several entries; their conditions need not be identical. Equal values may be shown once. Read-outs that look alike come from different tables or passages of the source.

Columns and labels:
[1] = Aqueous thermodynamic solubility by HPLC; assay type: physicochemical; conditions: for solubility thermodynamic at 15 min / solubility at 15 min: thermodynamic from solid; for solubility thermodynamic at 15 min / Experimental S / solubility at 15 min: water; for solubility thermodynamic at 15 min: read-out: Experimental S
Experimental: The aqueous thermodynamic solubility of derivatives 1–7 were measured using a standard HPLC (High Performance Liquid Chromatography) procedure. Solubility is defined as the amount of substance that passes into solution in order to establish the equilibrium at constant temperature and pressure and, thus, produce a saturated solution. The water solubility (log S) and log P were calculated for comparison.
Intrinsic aqueous drug solubility was determined by forming a supersaturated solution of the drug compound in water. The suspension was sonicated for 15 min and centrifuged at 13,000 rpm for 6 min. After 15 min the supernatant was decanted and the total drug content solubilised was analysed using reverse phase HPLC. The solution was analysed using an Agilent 1260 Infinity/DAD (100–900 nm) (Waldbronn, Germany) with a Zorbax eclipse XDB ([…], 4.6 mm × 150 mm) (Waldbronn, Germany) column. The mobile phase comprised of 80:20 acetonitrile: H2O containing 45 mM ammonium formate buffered to pH 3.5 with formic acid. Flow rate was 1 mL/min with 5 μL injection volume.

[2] = tested on: MDA-MB-231 (breast) human tumour cell line; parameters: method as in PMID 26966420; conditions: read-out: IC50, thymidine uptake assay; cited from earlier work
MDA-MB-231 = tested on: MDA-MB-231; parameters: method as in PMID 22698703, doi:10.1039/c3md00320e, PMID 26966420; conditions: cited from earlier work
[3] = In vitro drug release from polymer into PBS; assay type: physicochemical; conditions: 37 °C
Experimental: The formulation (1 mL) was pipetted inside dialysis tubing (MW cut off = 12–14 kDa) and dialysed against PBS in sink (100 mL, 0.2 M) at 37 °C with stirring. At various time points 1 mL of the external PBS was extracted and replaced with 1 mL of fresh PBS. The presence of drug in the collected PBS was determined using UV-VIS spectroscopy as before.

HCT116 = tested on: HCT116; parameters: method as in PMID 22698703, doi:10.1039/c3md00320e, PMID 26966420; conditions: cited from earlier work
[4] = Drug loading into Ch5 polymer (UV-VIS); assay type: physicochemical; conditions: 6 mg/mL, 10:1 feed ratio
Experimental: The maximum compound solubilisation observed was 6 mg/mL at a 10:1 ratio, with 0.59 mg/mL drug encapsulation being achieved.
Polymer solutions of 1 mg/mL, 3 mg/mL, and 6 mg/mL were made up in deionised water and probe sonicated for 10 min to ensure aggregation of the self-assemblies was achieved. Compound 2 was added in 1:1, 5:1, and 10:1 initial drug: excipient weight ratios and the drug-polymer solutions were probe sonicated for a further 10 min to ensure maximum encapsulation was achieved. After cooling to room temperature, the solutions were filtered using 0.45 µm syringe filters (with prefilters) to ensure any excess un-encapsulated drugs were removed. Drug quantification was carried out using UV-VIS spectroscopy with the samples diluted in DMSO. Absorbance was measured at 304 nm. Calibration was run from 0.0039–0.0313 mg/mL with R^2 = 0.992 (see Supplementary Materials Figure S3 for the calibration plot).

[5] = tested on: human pancreatic adenocarcinoma (BxPC-3) cells; assay: MTT cytotoxicity assay; assay type: cell-based
Experimental: Finally the viability was measured with the MTT assay in human pancreatic adenocarcinoma (BxPC-3) cells using 2 with and without the polymer encapsulation; the results are shown in Figure 6.
An MTT assay was carried out using human pancreatic adenocarcinoma (BxPC-3) cells. Cells were cultured in RPMI medium containing 10% FBS and 1% penicillin streptomycin (Penstrep). […] The experiments were performed in triplicate (n = 3) using eight wells per plate for each data point. […] Polymeric self-assemblies were formed by probe sonicating the polymers in sterile water (5 mg/mL). The polymer stock solutions were diluted to 0.005 mg/mL with media. A drug stock solution (20 mg/mL) was prepared by diluting compound 2 in DMSO. The formulations were prepared by addition of compound 2 into 0.005 mg/mL polymer solution.

[6] = tested on: NCI60 human tumour cell line panel; assay: NCI60 human tumour cell line panel growth inhibition (SRB); assay type: cell-based
Experimental: (§1) Thymidine uptake was used for viability testing on the MDA-MB-231 (breast) and HCT116 (colon) human tumour cell lines. This measurement reflects the anti-proliferative/cytotoxic effects of the compounds. A concentration of 1 μM was used. […] To corroborate these findings, derivatives 3, 4, and 6 were tested against the National Cancer Institute’s human tumour cell line panel (NCI60). […] The leukaemia cell lines K-562 (45.5% growth) and SR (47.7% growth) were the most affected followed by the melanoma MDA-MB-435 (53.9% growth) cell line. This is an interesting observation since the thieno[2,3-b]pyridines are often active against leukaemia cells and the MDA-MB-435 cell line, in particular.
(§2) Furthermore, derivatives 3, 4, and 6 were sent to the National Cancer Institute’s Developmental Therapeutic Program (DTP) where they were screened against a panel of sixty human tumour cell lines (NCI60, for further information see [18, 29, 30] and a complete description in the Supplementary Materials section).
(§3) Figure S3. Compound 2 UV-vis calibration in DMSO at 304 nm.
(§4) NCI's 60-cell line panel growth inhibition assay
The NCI's human 60-cell lines were grown in RPMI 1640 medium containing 5% FBS and 2mM L-glutamine. Cells were inoculated into 96-well plates at plating densities 5000–40 000 cells per well, based on the doubling time of individual cell lines. Plates were then incubated at 37 °C, 5% CO2, 95% air and 100% relative humidity for 24 h prior to addition of tested compounds. After 24 h, two plates of each cell line were fixed in situ with trichloroacetic acid (TCA), to represent a measurement of the cell population for each cell line at the time of tested compound addition. Tested compounds were solubilized in DMSO at a concentration 400 times that of the desired final maximum test concentration and stored frozen prior to use. An aliquot of each frozen tested concentrate was thawed and diluted to twice the desired final maximum test concentration with complete medium containing 50 μg mL-1 gentamicin. 100 μL aliquot of the tested drug diluted solution was added to appropriate wells containing 100 μL of medium, resulting in the required final drug doses. Following tested compound addition, plates were incubated for additional 48 h. The assay was terminated by the addition of cold TCA for adherent cells. Cells were fixed in situ by addition of 50 μL of cold 50% (w/v) TCA (final concentration, 10% TCA) and incubated for 60 min at 4 °C. The supernatant was discarded, and plates were washed 5 times with water and air dried. Sulforhodamine B (SRB) solution (100 μL), 0.4%(w/v) in 1% acetic acid was added to each well, and plates were incubated for 10 min at rt. […] The bound stain was subsequently solubilized with 10 mM Trizma base, and the absorbance was measured on a plate reader at 515 nm. […]

[7] = tested on: HCT116 (colon) human tumour cell line; assay: Thymidine uptake cell proliferation assay; assay type: cell-based; conditions: 1 μM, untreated cells = 100% growth
Experimental: as §1
(§5) As described in detail previously cell proliferation was measured using a thymidine incorporation assay by seeding 3000 cells in each well using 96-well plates with varying concentrations of inhibitors for three days. Experiments were performed in triplicate with a minimum of two experimental repeats. Briefly, 0.04 µCi of ^3H-thymidine was added to each well and incubated for five hours, after which the cells were gathered onto glass fibre filters using an automated TomTec harvester. Filters were incubated with Betaplate Scint and thymidine incorporation determined with Trilux/Betaplate counter showing the percentage of cells incorporated with ^3H-thymidine into the DNA helix.

[8] = tested on: MDA-MB-231 (breast) human tumour cell line; assay: Thymidine uptake cell proliferation assay; assay type: cell-based; conditions: 1 μM, untreated cells = 100% growth
Experimental: as §1, §5

[9] = tested on: leukaemia cell line K-562; assay: NCI60 panel growth inhibition (SRB); assay type: cell-based, human; conditions: K-562, NCI60
Experimental: as §1, §2, §3, §4
(§6) The NCI's human 60-cell lines were grown in RPMI 1640 medium containing 5% FBS and 2mM L-glutamine. Cells were inoculated into 96-well plates at plating densities 5000–40 000 cells per well, based on the doubling time of individual cell lines. Plates were then incubated at 37 °C, 5% CO2, 95% air and 100% relative humidity for 24 h prior to addition of tested compounds. After 24 h, two plates of each cell line were fixed in situ with trichloroacetic acid (TCA), to represent a measurement of the cell population for each cell line at the time of tested compound addition. Tested compounds were solubilized in DMSO at a concentration 400 times that of the desired final maximum test concentration and stored frozen prior to use. […] The bound stain was subsequently solubilized with 10 mM Trizma base, and the absorbance was measured on a plate reader at 515 nm. […]

[10] = tested on: melanoma MDA-MB-435 cell line; assay: NCI60 panel growth inhibition (SRB); assay type: cell-based, human; conditions: MDA-MB-435, NCI60
Experimental: as §1, §2, §3, §4, §6

leukaemia cell line SR = assay: NCI60 panel growth inhibition (SRB); assay type: cell-based, human
Experimental: as §1, §2, §3, §4, §6

[11] = HPLC, read-out: Experimental S, log S (converted)

| solubility thermodynamic at 15 min ([1]; HPLC) [µg/mL] | solubility at 15 min [1, 11] [µM] | SMILES | activity against NCI60 panel [6] | average relative growth, thymidine assay [7] [%] | average relative growth, thymidine assay [8] [%] | also measured |
| --- | --- | --- | --- | --- | --- | --- |
| 1.21 (≈ 3.59 µM) | 3.98 | Nc1c(C(=O)Nc2ccccc2)sc2nc3c(cc12)C(=O)CCC3 [Compound 1, 3-amino-5-oxo-N-phenyl-5,6,7,8-tetrahydrothieno[2,3-b]quinoline-2-carboxamide] |  |  |  | Experimental S ([1]; HPLC): 1.2 µg/mL |
| 3.53 (≈ 9.15 µM) | 10 | Cc1c(Cl)cccc1NC(=O)c1sc2nc3c(cc2c1N)C(=O)CCC3 [Compound 2] |  |  |  | IC50 [2]: 0.164 µM; GI50 (MDA-MB-231): 0.141 µM; time to plateau of release from the polymer ensemble into the aqueous phase [3]: ~ 40 min; GI50 (HCT116): 0.067 µM; drug encapsulation (maximum) in Ch5 polymer [4]: 0.59 mg/mL; IC50 ([5]; BXPC-3, 24 h exposure, read-out: IC50, BxPC-3 viability (MTT)): 2.5 µg/mL and 6.48 µM; viability at 12.95 µM ([5]; BxPC-3, 5 μg/mL (12.95 μM), read-out: cell viability (activity remaining)): ~30% |
|  | 3160 | Nc1c(C(=O)Nc2ccccc2)n(CCCN2CCOCC2)c2nc3c(cc12)CCCC3 [Compound 3] | very modest or no activity | 90.3 | 99.5 | solubility increase as compared to 1 [1]: three orders of a magnitude; water solubility [1]: 1300 µg/mL (≈ 3000 µM); Experimental S ([1]; HPLC): 1339.8 µg/mL and 1336.7 µg/mL; solubility at 15 min ([1]; read-out: water solubility): ~1300 µg/mL |
| 0.2 (≈ 0.471 µM) | 0.501 | Nc1c(C(=O)Nc2ccccc2)n(CCCc2ccccc2)c2nc3c(cc12)CCCC3 [Compound 4] | very modest or no activity | 103.6 | 105.4 |  |
| 0.18 (≈ 0.486 µM) | 0.501 | Cn1c(C(=O)Nc2cccc3ccccc23)c(N)c2cc3c(nc21)CCCC3 [Compound 5] |  | 102.1 | 97.2 |  |
| 0.76 (≈ 2.18 µM) | 2 | Cc1cccc(NC(=O)c2c(N)c3cc4c(nc3n2C)CCCC4)c1C [Compound 6] | very modest or no activity | 104.2 | 106.0 | overall relative growth for the 60 cell lines ([6]; untreated cells = 100% growth): 77%; growth [9]: 45.5%; growth [10]: 53.9%; growth (leukaemia cell line SR): 47.7% |
| 0.61 (≈ 1.75 µM) | 1.58 | Cn1c(C(=O)Nc2ccccc2)c(N)c2cc3c(nc21)CCCCCC3 [Compound 7] |  | 99.0 | 100.7 |  |
